Measurements as given in patent US20240254118A1, “PRMT5 INHIBITORS AND USES THEREOF” (Gilead Sciences, Inc., priority 2022, published 2024).

Key:
[1] = test system: HCT116 MTAP-deleted cells; test: Cell viability assay (CellTiter-Glo, 7 days), HCT116 MTAP-deleted; details: Homo sapiens, HCT-116, 168 h
[2] = test system: SDMA signal (PRMT5 inhibition) in HCT116 MTAP-deleted cells; test: Symmetric di-methyl arginine image-based high content screen assay (SDMA assay), HCT116 MTAP-deleted; assay type: cell-based; details: SDMA assay; for EC50: Homo sapiens, HCT-116, 72 h, 3 days of treatment, cell line not given, taken as HCT116 MTAP-deleted, read-out: EC50 (SDMA assay)
Procedure, shortened: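 Read-out: per-cell mean SDMA immunofluorescence (Alexa Fluor 488 secondary), cells segmented by DAPI on a high-content imager. Compound exposure in HCT116 MTAP-deleted cells lasted until fixation on Day 3; overnight 4° C primary anti-SDMA antibody staining.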

[3] = taken as HCT116 WT versus MTAP-deleted

Row | Compound | CC50 [1] [nM] | EC50 [2] [nM] | EC50 selectivity (SDMA assay) [2, 3] | EC50 selectivity (SDMA assay) ([2]; taken as HCT116 WT vs MTAP-deleted)
1 | Cn1ncc2c(N)nc3ccc(C(=O)N(Cc4ccc(C(F)(F)F)cn4)N4CCOCC4=O)cc3c21 [Example 62, 4-amino-1-methyl-N-(3-oxomorpholin-4-yl)-N-[[5-(trifluoromethyl)-2-pyridyl]methyl]pyrazolo[4,3-c]quinoline-8-carboxamide] | < 100 | < 1 | 94 | 
2 | Cn1ncc2c(N)nc3ccc(C(=O)N(Cc4ccc(C(F)(F)F)cn4)NC(=O)C45CC(C4)C5)cc3c21 [Example 332, 4-amino-N′-(bicyclo[1.1.1]pentane-1-carbonyl)-1-methyl-N-((5-(trifluoromethyl)pyridin-2-yl)methyl)-1H-pyrazolo[4,3-c]quinoline-8-carbohydrazide] | < 100 | < 1 | 308 | 
3 | CN(C(=O)[C@H]1CCO1)N(Cc1ccc(C(F)(F)F)cc1F)C(=O)c1ccc2nc(N)c3cnn(C)c3c2c1 [Example 197, 4-amino-N-[[2-fluoro-4-(trifluoromethyl)phenyl]methyl]-N′,1-dimethyl-N′-[(2R)-oxetane-2-carbonyl]pyrazolo[4,3-c]quinoline-8-carbohydrazide] | < 100 | < 1 | 61 | 
4 | CC(=O)N(C)N(Cc1ccc(C(F)(F)F)c(F)c1)C(=O)c1ccc2nc(N)c3cnn(C)c3c2c1 [Example 351, N′-acetyl-4-amino-N-(3-fluoro-4-(trifluoromethyl)benzyl)-N′,1-dimethyl-1H-pyrazolo[4,3-c]quinoline-8-carbohydrazide] | < 100 | 1 to 5 | 33 | 
5 | Cn1ncc2c(N)nc3ccc(C(=O)N(Cc4ccc(C(F)(F)F)cn4)N4CCCOC4=O)cc3c21 [Example 10, 4-amino-1-methyl-N-(2-oxo-1,3-oxazinan-3-yl)-N-((5-(trifluoromethyl)pyridin-2-yl)methyl)-1H-pyrazolo[4,3-c]quinoline-8-carboxamide] | < 100 | < 1 | 180 | 
6 | Cn1ncc2c(N)nc3ccc(C(=O)N(Cc4ccc(C(F)(F)F)cn4)N4CCCC(F)(F)C4)cc3c21 [Example 21, 4-amino-N-(3,3-difluoro-1-piperidyl)-1-methyl-N-[[5-(trifluoromethyl)-2-pyridyl]methyl]pyrazolo[4,3-c]quinoline-8-carboxamide] | < 100 | < 1 | 90 | 
7 | C[C@@H]1CN(N(Cc2ccc(C(F)(F)F)cn2)C(=O)c2cc3c(cc2F)nc(N)c2cnn(C)c23)C[C@H](C)O1 [Example 293, 4-amino-N-((2S,6R)-2,6-dimethylmorpholino)-7-fluoro-1-methyl-N-((5-(trifluoromethyl)pyridin-2-yl)methyl)-1H-pyrazolo[4,3-c]quinoline-8-carboxamide] | < 100 | < 1 | 9 | 
8 | CN(C(=O)OC(C)(C)C)N(Cc1ccc(C(F)(F)F)cn1)C(=O)c1ccc2nc(N)c3cnn(C)c3c2c1 [Example 137, tert-butyl N-[(4-amino-1-methyl-pyrazolo[4,3-c]quinoline-8-carbonyl)-[[5-(trifluoromethyl)-2-pyridyl]methyl]amino]-N-methyl-carbamate] | < 100 | 1 to 5 | 159 | 
9 | CCN(C)N(Cc1ccc(C(F)(F)F)cn1)C(=O)c1cc2c(cc1F)nc(N)c1cnn(C)c12 [Example 456, 4-amino-N′-ethyl-7-fluoro-N′,1-dimethyl-N-((5-(trifluoromethyl)pyridin-2-yl)methyl)-1H-pyrazolo[4,3-c]quinoline-8-carbohydrazide] | < 100 | < 1 |  | 25
10 | Cn1ncc2c(N)nc3ccc(C(=O)N(Cc4ccc(C(F)(F)F)cn4)N4CC5(CC(F)(F)C5)OC4=O)cc3c21 [Example 345, 4-amino-N-(2,2-difluoro-6-oxo-5-oxa-7-azaspiro[3.4]octan-7-yl)-1-methyl-N-((5-(trifluoromethyl)pyridin-2-yl)methyl)-1H-pyrazolo[4,3-c]quinoline-8-carboxamide] | 100 to 1000 | 1 to 5 | 152 | 
11 | CC(=O)N(C)N(Cc1cc(F)c(F)cc1F)C(=O)c1ccc2nc(N)c3cnn(C)c3c2c1 [Example 49, N′-acetyl-4-amino-N′,1-dimethyl-N-[(2,4,5-trifluorophenyl)methyl]pyrazolo[4,3-c]quinoline-8-carbohydrazide] | < 100 | < 1 | 163 | 
12 | CCC(=O)N(CC)N(Cc1ccc(C(F)(F)F)cn1)C(=O)c1ccc2nc(N)c3cnn(C)c3c2c1 [Example 287, 4-amino-N′-ethyl-1-methyl-N′-propionyl-N-((5-(trifluoromethyl)pyridin-2-yl)methyl)-1H-pyrazolo[4,3-c]quinoline-8-carbohydrazide] | < 100 | 1 to 5 | 174 | 
13 | CC(=O)N(C)N(Cc1cc2ccccc2s1)C(=O)c1ccc2nc(N)c3cnn(C)c3c2c1 [Example 213, N′-Acetyl-4-amino-N-(benzothiophen-2-ylmethyl)-N′,1-dimethyl-pyrazolo[4,3-c]quinoline-8-carbohydrazide] | < 100 | < 1 | 209 | 
14 | CC(=O)N(C)N(Cc1ccc2c(cnn2C)c1)C(=O)c1ccc2nc(N)c3cnn(C)c3c2c1 [Example 164, N′-acetyl-4-amino-N′,1-dimethyl-N-((1-methyl-1H-indazol-5-yl)methyl)-1H-pyrazolo[4,3-c]quinoline-8-carbohydrazide] | < 100 | 1 to 5 | 163 | 
15 | CC(=O)N(C)N(Cc1cccc2c1OC(F)(F)O2)C(=O)c1ccc2nc(N)c3cnn(C)c3c2c1 [Example 307, N′-acetyl-4-amino-N-((2,2-difluorobenzo[d][1,3]dioxol-4-yl)methyl)-N′,1-dimethyl-1H-pyrazolo[4,3-c]quinoline-8-carbohydrazide] | < 100 | < 1 | 359 | 
16 | CNC(=O)c1ccc(-c2ccc(CN(C(=O)c3ccc4nc(N)c5cnn(C)c5c4c3)N3CCCCC3=O)nc2)cn1 [Example 160, 4-amino-1-methyl-N-((6′-(methylcarbamoyl)-[3,3′-bipyridin]-6-yl)methyl)-N-(2-oxopiperidin-1-yl)-1H-pyrazolo[4,3-c]quinoline-8-carboxamide] | < 100 | 1 to 5 | 10 | 
17 | Cn1ncc2c(N)nc3ccc(C(=O)N(Cc4c(F)cc(C(F)(F)F)cc4F)N4CCCCC4=O)cc3c21 [Example 64, 4-amino-N-[[2,6-difluoro-4-(trifluoromethyl)phenyl]methyl]-1-methyl-N-(2-oxo-1-piperidyl)pyrazolo[4,3-c]quinoline-8-carboxamide] | < 100 | < 1 | 15 | 
18 | CC(=O)N(C)N(Cc1ccc(C#CC2CCCO2)cc1F)C(=O)c1ccc2nc(N)c3cnn(C)c3c2c1 (stereo not drawn) [Example 387, N′-acetyl-4-amino-N-[[2-fluoro-4-(2-tetrahydrofuran-2-ylethynyl)phenyl]methyl]-N′,1-dimethyl-pyrazolo[4,3-c]quinoline-8-carbohydrazide] | < 100 | 1 to 5 | 44 | 
19 | Cn1ncc2c(N)nc3ccc(C(=O)N(Cc4nc5ccccc5n4C)N4CCCC4=O)cc3c21 [Example 80, 4-Amino-1-methyl-N-[(1-methylbenzimidazol-2-yl)methyl]-N-(2-oxopyrrolidin-1-yl)pyrazolo[4,3-c]quinoline-8-carboxamide] | < 100 | < 1 | 164 | 
20 | CC(=O)N(C)N(Cc1ccc(-c2ccc(C(F)(F)F)cc2)cc1F)C(=O)c1ccc2nc(N)c3cnn(C)c3c2c1 [Example 231, N′-acetyl-4-amino-N-((3-fluoro-4′-(trifluoromethyl)-[1,1′-biphenyl]-4-yl)methyl)-N′,1-dimethyl-1H-pyrazolo[4,3-c]quinoline-8-carbohydrazide] | < 100 | 1 to 5 | 18 | 
21 | CC(=O)N(C)N(Cc1ccc(C(F)(F)F)cn1)C(=O)c1cc2c3c(c(N)nc2cc1F)[C@@H](C)OC3 [Example 167, (3R)—N′-acetyl-4-amino-7-fluoro-N′,3-dimethyl-N-[[5-(trifluoromethyl)-2-pyridyl]methyl]-1,3-dihydrofuro[3,4-c]quinoline-8-carbohydrazide] | < 100 | < 1 | 10 | 
22 | Cn1ncc2c(N)nc3ccc(C(=O)N(Cc4ccc(C(F)(F)F)cn4)N4C(=O)O[C@H]5CC[C@H]54)cc3c21 [Example 362, 4-amino-1-methyl-N-((1S,5R)-3-oxo-2-oxa-4-azabicyclo[3.2.0]heptan-4-yl)-N-((5-(trifluoromethyl)pyridin-2-yl)methyl)-1H-pyrazolo[4,3-c]quinoline-8-carboxamide] | < 100 | 1 to 5 | 468 | 
23 | CN(c1ncccn1)N(Cc1cn2cc(Cl)ccc2n1)C(=O)c1ccc2nc(N)c3cnn(C)c3c2c1 [Example 129, 4-amino-N-[(6-chloroimidazo[1,2-a]pyridin-2-yl)methyl]-N′,1-dimethyl-N′-pyrimidin-2-yl-pyrazolo[4,3-c]quinoline-8-carbohydrazide] | < 100 | < 1 | 11 | 
